These results are taken from US20250171420A1 (Monte Rosa Therapeutics, Inc., priority 2022, published 2025).

Structures are written as SMILES. Read-outs that look alike come from different tables or passages of the source.

In data set [1] the target is T1, CK1α (Homo sapiens, UniProt P48729).
T1 construct: HEK293 clonal lines with CRISPR KI HiBiT tag on CSNK1A1
Briefly: CK1α NanoBit Assay (HiBiT-tagged CSNK1A1, HEK293 clonal lines). The data set is classed as cell-based. Particulars: HEK293 HiBiT-CSNK1A1/LgBiT cells, 24 h incubation. The procedure, abridged:
(§1)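 HEK293 clones carrying a CRISPR knock-in HiBiT tag on CSNK1A1 and stably expressing LgBiT are treated with compound for 24 hours at 37° C, 5% CO2, then read by luminescence. Response is normalized as 100*(S−N)/(P−N) against plate negative and positive controls, and DC50 values are derived.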

The subject of data set [2] is SKCO1 cell line. Briefly: Growth inhibition, CyQUANT Direct Cell Proliferation Assay, SKCO1. It counts as cell-based. Particulars: Homo sapiens, SK-CO-1; SKCO1, 120 to 168 hours; read-out: SKCO1 GI50. Summed up: (§2)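 Cells seeded 300 to 1,800 per well, day-0 CyQUANT Direct read after overnight attachment; 9-point 3-fold dilutions from 30 μM top concentration, 120 to 168 h exposure, 0.3% DMSO control. Fluorescence Ex/Em 480/520 nm; growth inhibition normalised to day-0 and untreated day-N signals, GI50 at 50% of untreated control.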

Data set [3] deals with LS180 cell line. Briefly: Growth inhibition, CyQUANT Direct Cell Proliferation Assay, LS180. It counts as cell-based. To be noted: Homo sapiens; LS180, 120 to 168 hours; read-out: LS180 GI50. Summed up:
as §2

Data set [4] in a line: Oral pharmacokinetics in male BALB/c mice. It counts as in vivo. To be noted: mouse, plasma, mean ± SD. How it is done:
Male BALB/c mice were administered a discrete, oral (PO) dose of Compound 288, Compound 335, Compound 102, or Compound 303 at 10 mg/kg; all mice were fasted except for mice that were dosed with Compound 288. Male BALB/c mice were fasted overnight and administered a cassette dose, PO dose of Compound 303 and other compounds at 5 mg/kg per compound.
Blood samples were collected serially from three animals/time-point following PO administration of the test compounds to the mice and placed in tubes containing K2EDTA. The blood samples were centrifuged, and the aliquots of the resulting plasma stored frozen at −60 to −90° C.
The plasma samples were analyzed by LC-MS/MS to determine concentrations of the test compounds. The in-life portion of the study and the bioanalysis of plasma samples was conducted at Wuxi (China).
The pharmacokinetic parameters for the tested compounds were calculated by non-compartmental analysis using Phoenix WinNonlin software.

Data set [5] has as its system CW2 cell line. Description: Growth inhibition, CyQUANT Direct Cell Proliferation Assay, CW2. It counts as cell-based. Particulars: Homo sapiens, CW-2; CW2, 120 to 168 hours; read-out: CW2 GI50. The procedure, abridged: as §2
The target in data set [6] is CRBN/DDB1 (Homo sapiens, UniProt Q96SW2). Briefly: HTRF binding assay (displacement of Cy5-thalidomide probe from CRBN/DDB1). Summed up: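 Compounds in a 10-point threefold dilution series were incubated 30 min at ambient temperature with 2.5 nM CRBN/DDB1, 100 nM Cy5-thalidomide probe and terbium anti-His donor (HEPES/NaCl/TCEP/EDTA/Tween20 buffer). IC50 came from 4-parameter fits of the 665/620 nm HTRF ratio; Ki used Cheng-Prusoff on geometric-mean IC50.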

Data set [7] relates to GP2D cell line. Briefly: Growth inhibition, CyQUANT Direct Cell Proliferation Assay, GP2D. It counts as cell-based. Particulars: GP2D, 120 to 168 hours; read-out: GP2D GI50. Summed up:
as §2

The subject of data set [8] is LS174T cell line. Description: Growth inhibition, CyQUANT Direct Cell Proliferation Assay, LS174T. The data set is classed as cell-based. To be noted: Homo sapiens, 120 to 168 hours, read-out: LS174T GI50. Summed up:
as §2

Data set [9] deals with T2, CK1α (Homo sapiens, UniProt P48729+Q96SW2).
T2 construct: HEK293 clonal lines with CRISPR KI HiBiT tag on CSNK1A1
Description: CK1α NanoBit Assay (HiBiT-tagged CSNK1A1, HEK293 clonal lines). The data set is classed as cell-based. To be noted: read-out: CK1α DC50 (μM) 24 h; HEK293 HiBiT-CSNK1A1/LgBiT cells, 24 h incubation. The procedure, abridged:
as §1
(In general: HiBiT is a short tag that completes a luciferase, so light tracks the accessible tagged protein.)

Setting [10] is: CRBN/DDB1 2.5 nM, Cy5-Thalidomide 100 nM, 30 min, geometric mean, read-out: HTRF_Thali_Disp_DR_geo_IC50.

Sequence of CRBN/DDB1 (Q96SW2 whole entry, species assumed): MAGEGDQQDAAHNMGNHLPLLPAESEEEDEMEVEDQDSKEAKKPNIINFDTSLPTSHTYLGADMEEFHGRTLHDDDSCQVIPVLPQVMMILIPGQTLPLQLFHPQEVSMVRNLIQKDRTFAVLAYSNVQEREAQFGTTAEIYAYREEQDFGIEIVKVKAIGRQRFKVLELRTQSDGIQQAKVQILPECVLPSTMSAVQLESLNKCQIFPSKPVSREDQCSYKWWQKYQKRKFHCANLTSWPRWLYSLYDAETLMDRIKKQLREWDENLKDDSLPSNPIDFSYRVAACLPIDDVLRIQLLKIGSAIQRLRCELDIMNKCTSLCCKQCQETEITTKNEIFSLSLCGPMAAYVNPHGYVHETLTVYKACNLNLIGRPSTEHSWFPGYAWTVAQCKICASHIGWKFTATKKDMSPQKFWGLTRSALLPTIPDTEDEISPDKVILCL
Sequence of CRBN/DDB1 (Q16531 whole entry partner, species assumed): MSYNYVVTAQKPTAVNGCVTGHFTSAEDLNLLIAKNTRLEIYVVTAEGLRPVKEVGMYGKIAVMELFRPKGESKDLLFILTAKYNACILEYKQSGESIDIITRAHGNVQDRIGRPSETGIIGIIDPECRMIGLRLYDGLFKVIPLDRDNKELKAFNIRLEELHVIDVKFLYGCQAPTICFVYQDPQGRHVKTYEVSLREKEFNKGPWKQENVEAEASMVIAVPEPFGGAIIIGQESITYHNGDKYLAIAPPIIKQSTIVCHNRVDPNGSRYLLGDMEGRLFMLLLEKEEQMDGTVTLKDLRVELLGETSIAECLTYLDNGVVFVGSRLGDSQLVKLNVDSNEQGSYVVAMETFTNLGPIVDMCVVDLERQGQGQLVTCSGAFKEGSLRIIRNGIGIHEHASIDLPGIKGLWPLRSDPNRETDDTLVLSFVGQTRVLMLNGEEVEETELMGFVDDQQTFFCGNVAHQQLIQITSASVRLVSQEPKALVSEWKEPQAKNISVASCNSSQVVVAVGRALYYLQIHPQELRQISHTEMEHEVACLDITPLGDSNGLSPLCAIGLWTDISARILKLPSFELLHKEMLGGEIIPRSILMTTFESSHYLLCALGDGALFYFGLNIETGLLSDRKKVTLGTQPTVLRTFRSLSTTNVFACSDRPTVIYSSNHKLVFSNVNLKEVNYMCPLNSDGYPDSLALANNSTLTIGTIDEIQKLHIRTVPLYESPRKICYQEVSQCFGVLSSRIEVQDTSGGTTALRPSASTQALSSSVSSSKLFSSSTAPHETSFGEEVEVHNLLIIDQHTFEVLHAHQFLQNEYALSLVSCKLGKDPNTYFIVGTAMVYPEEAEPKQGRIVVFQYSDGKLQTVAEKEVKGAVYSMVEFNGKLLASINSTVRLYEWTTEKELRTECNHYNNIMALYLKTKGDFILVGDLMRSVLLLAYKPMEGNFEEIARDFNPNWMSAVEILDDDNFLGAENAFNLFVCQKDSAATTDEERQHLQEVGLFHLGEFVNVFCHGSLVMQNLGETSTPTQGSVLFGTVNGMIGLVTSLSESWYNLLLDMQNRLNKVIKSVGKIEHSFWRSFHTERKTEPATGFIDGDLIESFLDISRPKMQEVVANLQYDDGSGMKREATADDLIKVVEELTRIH
T1 sequence (P48729 whole entry): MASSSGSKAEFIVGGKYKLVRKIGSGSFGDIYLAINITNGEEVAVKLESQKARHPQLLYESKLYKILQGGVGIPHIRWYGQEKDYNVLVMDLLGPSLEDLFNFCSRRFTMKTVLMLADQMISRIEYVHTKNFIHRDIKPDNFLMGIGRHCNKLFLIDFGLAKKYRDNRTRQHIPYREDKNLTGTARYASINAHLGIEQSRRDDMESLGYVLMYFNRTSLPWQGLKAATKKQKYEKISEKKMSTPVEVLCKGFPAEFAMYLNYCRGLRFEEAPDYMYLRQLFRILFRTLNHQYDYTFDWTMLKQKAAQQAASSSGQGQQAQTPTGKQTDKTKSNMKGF
T1 sequence (Q96SW2 whole entry, further chain): as the sequence (Q96SW2 whole entry, species assumed) above
T1 sequence (Q16531 2-1140 partner limits assumed): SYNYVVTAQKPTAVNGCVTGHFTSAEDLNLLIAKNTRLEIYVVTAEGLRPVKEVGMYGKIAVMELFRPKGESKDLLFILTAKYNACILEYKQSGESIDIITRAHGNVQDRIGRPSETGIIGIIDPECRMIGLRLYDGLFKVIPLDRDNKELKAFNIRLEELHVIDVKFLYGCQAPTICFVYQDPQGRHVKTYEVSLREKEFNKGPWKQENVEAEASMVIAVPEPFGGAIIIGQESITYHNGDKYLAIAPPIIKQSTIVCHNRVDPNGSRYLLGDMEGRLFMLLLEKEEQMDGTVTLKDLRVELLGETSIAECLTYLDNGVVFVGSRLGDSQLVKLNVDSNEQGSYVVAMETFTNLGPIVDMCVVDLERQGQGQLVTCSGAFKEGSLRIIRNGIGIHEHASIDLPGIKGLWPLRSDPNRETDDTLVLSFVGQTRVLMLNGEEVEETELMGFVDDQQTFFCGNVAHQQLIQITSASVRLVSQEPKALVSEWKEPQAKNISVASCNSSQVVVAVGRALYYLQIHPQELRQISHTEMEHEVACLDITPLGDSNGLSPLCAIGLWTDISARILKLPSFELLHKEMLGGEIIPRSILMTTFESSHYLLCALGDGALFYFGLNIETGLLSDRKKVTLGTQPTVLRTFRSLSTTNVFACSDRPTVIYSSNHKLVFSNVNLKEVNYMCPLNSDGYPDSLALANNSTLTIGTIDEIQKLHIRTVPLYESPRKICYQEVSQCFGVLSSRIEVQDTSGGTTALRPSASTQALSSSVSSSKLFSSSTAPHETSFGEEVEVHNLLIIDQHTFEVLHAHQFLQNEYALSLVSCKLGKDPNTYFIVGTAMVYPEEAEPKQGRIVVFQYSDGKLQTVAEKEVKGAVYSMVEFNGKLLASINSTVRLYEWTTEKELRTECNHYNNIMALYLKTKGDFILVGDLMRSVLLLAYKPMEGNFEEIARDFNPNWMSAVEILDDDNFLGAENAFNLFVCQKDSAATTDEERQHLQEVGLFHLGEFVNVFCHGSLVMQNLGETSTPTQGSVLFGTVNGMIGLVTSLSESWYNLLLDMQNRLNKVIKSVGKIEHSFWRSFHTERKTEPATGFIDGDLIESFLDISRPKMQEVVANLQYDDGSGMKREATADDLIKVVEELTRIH
T2 sequence (P48729 whole entry): as the sequence (P48729 whole entry) above
T2 sequence (Q96SW2 whole entry): as the sequence (Q96SW2 whole entry, species assumed) above
T2 sequence (Q16531 2-1140 partner limits assumed): as the sequence (Q16531 2-1140 partner limits assumed) above

On to `COC[C@@H]1Cc2ccccc2N1C(=O)Nc1ccc2c(c1)CN(C1CCC(=O)NC1=O)C2=O` (stereo partly drawn) [Compound 288, (2S)—N-(2-(2,6-dioxopiperidin-3-yl)-1-oxoisoindolin-5-yl)-2-(methoxymethyl)indoline-1-carboxamide], for which the DC50 in [1] was below 0.1 µM. Moreover, the GI50 – broadly, the concentration giving 50% growth inhibition – in data set [2] is below 100 nM. Moreover, the GI50 in [3] was in the range of 100 to 1000 nM. In data set [4] (PO 10 mg/kg), the AUC (commonly the area under the concentration-time curve, a measure of exposure) is 29700 ± 2450 ng·h/mL; the AUC(0-t) (as a rule, the area under the concentration-time curve up to a stated or last time point) amounted to 29600 ± 2460 ng·h/mL; the concentration peaked (Cmax) at 6870 ± 761 ng/mL; the Tmax – broadly, the time from dosing to the highest level – was determined as 49.8 ± 17.4 min. In data set [4] (PO 10 mg/kg), the half-life (as a rule, the time needed for the level to fall by half in the phase considered) is 163 ± 29.4 min. Moreover, in data set [5], the GI50 was below 100 nM. For the same molecule, in [6] (setting [10]), the IC50 lay in the range of 100 to 1000 nM. Further, the GI50 in data set [7] was in the range of 100 to 1000 nM. Also, the GI50 in data set [8] was 100 to 1000 nM.

The molecule `COC[C@H]1Cc2c(F)cccc2N1C(=O)Nc1ccc2c(c1)CN(C1CCC(=O)NC1=O)C2=O` (stereo partly drawn) [Compound 303, (2R)—N-(2-(2,6-dioxopiperidin-3-yl)-1-oxoisoindolin-5-yl)-4-fluoro-2-(methoxymethyl)indoline-1-carboxamide] showed a DC50 in data set [1] below 0.1 µM. In [4] (PO 5 mg/kg (cassette dose)), the exposure (AUC) worked out at 12700 ± 1760 ng·h/mL, the AUC(0-t) turned out to be 12300 ± 1710 ng·h/mL, the highest level (Cmax) was 7790 ± 1060 ng/mL and the Tmax is 30 min. The molecule also had a half-life in data set [4] (PO 5 mg/kg (cassette dose)) of 90.6 ± 13.2 min. For the same molecule, the IC50 in [6] (setting [10]) was 100 to 1000 nM.

Molecule `COCC1c2ccc(C3CC3)cc2CN1C(=O)Nc1ccc2c(c1)CN(C1CCC(=O)NC1=O)C2=O` (centres unmarked) [Compound 335, 5-cyclopropyl-N-(2-(2,6-dioxopiperidin-3-yl)-1-oxoisoindolin-5-yl)-1-(methoxymethyl)isoindoline-2-carboxamide] registered a DC50 in [1] below 0.1 µM. In [4] (PO 10 mg/kg), the AUC was 13400 ± 696 ng·h/mL, the AUC(0-t) came to 13300 ± 694 ng·h/mL, the Cmax (commonly the maximum level reached in the sampled fluid or tissue) was 10600 ± 697 ng/mL and the Tmax came to 15 min. In addition, the half-life in data set [4] (PO 10 mg/kg) is 64.8 ± 2.4 min. Besides, in data set [6] (setting [10]), the IC50 fell in the range of 100 to 1000 nM.

Regarding `CC(C)(C)C1CN(C(=O)Nc2ccc3c(c2)CN(C2CCC(=O)NC2=O)C3=O)c2ccccc21` (centres unmarked) [Compound 187, 3-(tert-butyl)-N-(2-(2,6-dioxopiperidin-3-yl)-1-oxoisoindolin-5-yl)indoline-1-carboxamide], the DC50 in data set [9] is below 0.1 µM. In addition, the IC50 in data set [6] is 100 to 1000 nM.

Regarding `O=C1CCC(N2Cc3cc(NC(=O)N4CCc5c4cccc5-n4cccn4)ccc3C2=O)C(=O)N1` (centres unmarked) [Compound 340, N-(2-(2,6-dioxopiperidin-3-yl)-1-oxoisoindolin-5-yl)-4-(1H-pyrazol-1-yl)indoline-1-carboxamide], in data set [1], the DC50 was below 0.1 µM. Also, the GI50 in data set [2] was below 100 nM; in [3] it was 100 to 1000 nM; in data set [5] it was 100 to 1000 nM; in [7], below 100 nM; in [8], below 100 nM. Further, in data set [6] (setting [10]), the IC50 lay in the range of 100 to 1000 nM.
